These results are taken from doi:10.1101/2021.07.15.452591v1 (biorxiv, 2021).

In this assay the target is T1, AmnC (2-aminomuconic 6-semialdehyde dehydrogenase) (Pseudomonas sp., UniProt Q9KWS5, DEL124-138/DEL477-491).
T1 sequence (Q9KWS5 1-476 DEL124-138): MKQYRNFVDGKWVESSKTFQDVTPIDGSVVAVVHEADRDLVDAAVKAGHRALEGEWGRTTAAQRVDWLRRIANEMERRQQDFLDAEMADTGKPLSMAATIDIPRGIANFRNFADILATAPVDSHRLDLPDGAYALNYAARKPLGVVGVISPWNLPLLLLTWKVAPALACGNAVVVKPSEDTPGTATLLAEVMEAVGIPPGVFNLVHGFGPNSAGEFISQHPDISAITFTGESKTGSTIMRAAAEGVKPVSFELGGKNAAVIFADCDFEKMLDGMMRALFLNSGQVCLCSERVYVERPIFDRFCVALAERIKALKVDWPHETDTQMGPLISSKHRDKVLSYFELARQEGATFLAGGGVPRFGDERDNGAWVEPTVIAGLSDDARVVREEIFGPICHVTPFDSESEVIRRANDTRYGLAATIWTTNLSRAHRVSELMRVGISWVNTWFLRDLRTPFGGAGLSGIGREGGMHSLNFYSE
The assay is described as follows: microscale thermophoresis. It counts as binding. For orientation: In MST a laser heats a spot of the sample, and binding alters the fluorescence response.

For `NC(=O)c1ccc[n+]([C@@H]2O[C@H](COP(=O)(O)OP(=O)(O)OC[C@H]3O[C@@H](n4cnc5c(N)ncnc54)[C@H](O)[C@@H]3O)[C@@H](O)[C@H]2O)c1` [NAD^+], the Kd – broadly, the constant that tells how readily two partners part at equilibrium – worked out at 3 ± 0.3 mM.
